# Assay results as given in patent US6737383B1, “Herbicidal oxadiazolidines” (priority 1999, dated 2004).
# What was measured:
# Green foxtail [1] = experiment: Test D green foxtail; type: in vivo; settings: Rate 250 g/ha; Postemergence; 0 to 100 scale
# Green foxtail [2] = experiment: Test D green foxtail; type: in vivo; settings: Rate 250 g/ha; Postemergence; 0 to 100 scale; remark: listed apart in the source
# guineagrass = experiment: Test D guineagrass; type: in vivo, Panicum maximum; settings: Postemergence, 0 to 100 scale
# goosegrass = experiment: Test D goosegrass; type: in vivo, Eleusine indica; settings: Postemergence, 0 to 100 scale
# Johnson grass = experiment: Test D Johnson grass; type: in vivo, Sorghum halepense; settings: Postemergence, 0 to 100 scale
# Green foxtail [3] = experiment: Test D green foxtail; type: in vivo; settings: Postemergence, 0 to 100 scale, 0 no injury, 100 complete control
# Green foxtail [4] = experiment: Test D green foxtail; type: in vivo; settings: Postemergence, 0 to 100 scale, 0 no injury, 100 complete control; remark: listed apart in the source
# common ragweed = experiment: Test D common ragweed; type: in vivo, Ambrosia elatior; settings: Postemergence, 0 to 100 scale
# [5] = Rate 16 g/ha, 0 no injury, 100 complete control
# [6] = Rate 32 g/ha, 0 no injury, 100 complete control
# [7] = Rate 64 g/ha, 0 no injury, 100 complete control
# [8] = Rate 125 g/ha, 0 no injury, 100 complete control
Compound,"Plant response rating, Green foxtail (Green foxtail [1])","Plant response rating, Green foxtail (Green foxtail [2])","Plant response rating, Guineagrass (guineagrass; [5])","Plant response rating, Guineagrass (guineagrass; [6])","Plant response rating, Guineagrass (guineagrass; [7])","Plant response rating, Guineagrass (guineagrass; [8])","Plant response rating, Guineagrass (guineagrass; Rate 250 g/ha)","Plant response rating, Goosegrass (goosegrass; [5])","Plant response rating, Goosegrass (goosegrass; [6])","Plant response rating, Goosegrass (goosegrass; [7])","Plant response rating, Goosegrass (goosegrass; [8])","Plant response rating, Goosegrass (goosegrass; Rate 250 g/ha)","Plant response rating, Johnsongrass (Johnson grass; [5])","Plant response rating, Johnsongrass (Johnson grass; [6])","Plant response rating, Johnsongrass (Johnson grass; [7])","Plant response rating, Johnsongrass (Johnson grass; [8])","Plant response rating, Johnsongrass (Johnson grass; Rate 250 g/ha)",Green foxtail plant response rating (Green foxtail [3]; Rate 64 g/ha),Green foxtail plant response rating (Green foxtail [3]; Rate 125 g/ha),"Plant response rating, Green foxtail (Green foxtail [4]; Rate 64 g/ha)",other results
CC(C)N(C(=O)n1oc(=O)n(C2CC2)c1=O)c1ccc(Cl)cc1 [Compound 241],100,100,0,0,80,100,100,0,100,100,100,100,80,0,0,0,0,10,100,10,"Guineagrass plant response rating (guineagrass; [7]): 100; Plant response rating, Green foxtail (Green foxtail [4]; Rate 125 g/ha): 100; Plant response rating, C. ragweed (common ragweed; [5]): 0; Plant response rating, C. ragweed (common ragweed; [6]): 0; Plant response rating, C. ragweed (common ragweed; [7]): 20; Plant response rating, C. ragweed (common ragweed; [8]): 100; Plant response rating, C. ragweed (common ragweed; Rate 250 g/ha): 100"
CC(C)N(C(=O)n1oc(=O)n(C2CCC2)c1=O)c1ccc(Cl)cc1 [Compound 349],100,100,0,0,20,0,40,0,20,100,100,90,0,0,0,10,40,10,80,10,"Guineagrass plant response rating (guineagrass; [7]): 0; Plant response rating, Green foxtail (Green foxtail [4]; Rate 125 g/ha): 80; Plant response rating, C. ragweed (common ragweed; [5]): 0; Plant response rating, C. ragweed (common ragweed; [6]): 0; Plant response rating, C. ragweed (common ragweed; [7]): 0; Plant response rating, C. ragweed (common ragweed; [8]): 0; Plant response rating, C. ragweed (common ragweed; Rate 250 g/ha): 20"
CC(C)N(C(=O)n1oc(=O)n(C2CCC2)c1=O)c1ccccc1 [Compound 348],100,100,0,0,0,100,80,50,90,100,100,100,0,0,0,20,90,100,100,100,"Plant response rating, Green foxtail (Green foxtail [4]; Rate 125 g/ha): 100; Plant response rating, C. ragweed (common ragweed; [5]): 0; Plant response rating, C. ragweed (common ragweed; [6]): 0; Plant response rating, C. ragweed (common ragweed; [7]): 0; Plant response rating, C. ragweed (common ragweed; [8]): 0; Plant response rating, C. ragweed (common ragweed; Rate 250 g/ha): 20"
